Entries after “also recorded” stand apart in the source; their conditions may differ.
Columns and labels:
[1] = test system: recurrent malignant gliomas; conditions: intranasal delivery, cited from earlier work
[2] = test system: Raji's-Luc/GFP human B-cell lymphoma cells; assay: Lym-1 CAR T cell delivery in intracranial Raji lymphoma xenografts (survival); format: in vivo, NSG mice; conditions: IV Lym-1 CAR T (5×10e6) + IC NEO100 (0.3% v/v=492 μM); control mice died within 15-20 days; P=0.0029
Description: 50,000 (5×10^4) human B-cell lymphoma cells, Raji's-Luc/GFP, were injected intracranially into NSG mice.
5 days post the tumor cells injection, the optical imaging was performed to confirm the tumor uptake (100% tumor uptake).
There were 3 experimental groups: (1) Control; (2) IV CAR T (5×10e6); (3) IV CAR T (5×10e6)+IC NEO100 (0.3% v/v=492 μM)
Body weight was monitored for the physical condition of the mice during the treatment. Tumor growth was monitored by optical imaging.

GL261 mouse glioma [3] = assay: Anti-mouse PD-1 antibody therapeutic efficacy (survival) in intracranial syngeneic mouse glioma; format: in vivo, C57 BL/6 mice
Description: 100,000 GL261 mouse glioma cells were injected intracranially to immune competent mice, C57 BL/6. 7 days post the injection, the mice were randomly divided into 4 experimental groups, and initiated the treatment at the same day. • Group 1. Control: IV and Intracardiac injection of 40 μl Saline Solution (5). • Group 2. Antibody treated mice: IV 40 μl Anti-mouse PD1 antibody at the dose of 2.5 • mg/kg (5). • Group 3. NEO100 treated mice: Intracardiac injection of 40 μl 5% NEO100 (5). • Group 4. Combination of NEO100 and antibody treated mice: Intracardiac 40 μl 5% NEO100, followed by IV 40 μl Anti-PD1 antibody at the dose of 2.5 mg/kg (6).
Animal survival data were plotted using the Kaplan-Meier method. One-way ANOVA was used for the overall test for differences. Grouped comparisons were performed using the Tukey method of adjusting for multiple comparisons. Logrank (Mantel-Cox) test was applied for the comparison of survival curves. A statistical evaluation result of p<0.05 was considered significant.

GL261 mouse glioma [4] = assay: NEO100-mediated human CAR T cell delivery to brain and tumor (CD3 IHC); format: in vivo
Description: 2-million CD19 and Lym-1 human CAR T cells that were suspended in 0.9% saline working solution to be used for the IV injection with and without intracardiac NEO100.
Preparation of the working solution for intracardiac injection of NEO100: 3% NEO100 suspended in 0.9% saline.
40 μl 3% NEO100 in saline was injected slowly to complete intracardiac application. Direct cell injection into the heart could cause local microinfarctions if the cells are clumpy during injection, hemopericardium and death as a consequence. This is why ultrasound guided injections with a small 30 G needle is important to minimize these potential adverse effects, (1) enabling the visualization of the needle tract to ensure that the needle enters the left ventricle only, and (2) subsequent monitoring of the heart through not only ECG but visualization of heart wall function after the injection. The fine gauge of the needle ensures that the cells are not clumpy when the cells are injected through intracardiac puncture.
Immediate after the completion of NEO100 injection, 2 million human CAR T cells in 40 μl PBS were injected through tail vein catheter that pre-primed with saline solution. To avoid the possible adverse effects mentioned above by direct cell injection through intracardiac application, we set up 2-step procedures for the study.
Step 1: 40 μl 3% NEO100 in saline was injected slowly to complete intracardiac application. This procedure allows NEO100 to exert the function of BBB disruption.
Step 2: 2-million CAR T cells were injected by IV through tail vein catheter.
Brain Perfusion—In order to rule out the residue left over inside the blood vessel after euthanizing, the testing animals were perfused by 10 ml 0.9% normal saline solution through left ventricle to flush out the blood. […] Confocal Imaging—[…] fresh frozen sections were made by cryostasis machine and pasted on microslide. Coverslip was mounted on the brain section by DAPI mounting medium before Confocal examination. […]

[5] = test system: Madin-Darby Canine Kidney (MDCK) cells; assay: In vitro BBB tight junction model (Transwell, TEER, fluorescence antibody); format: cell-based
Description: The labelled components are Transwell chemotaxis chamber; upper chamber; porous membrane and lower chamber. Transwell culture chambers (pore size: 0.8 μm). Madin-Darby Canine Kidney (MDCK) cells are epithelial cells. TEER: transepithelial/transendothelial electrical resistance. Fluorescence Ab: Alexa Fluo® 488; donkey anti-rat IgG (H+L). Fluorescence was measured in the lower chamber in about 120 minutes.

U-87 human glioma cells = assay: Intracranial glioma model in athymic nu/nu mice (survival); format: in vivo; conditions: applicant's prior experience; untreated mice about four weeks
Description: Male athymic nu/nu mice (6-8 weeks old) will be employed for this research. Rodent subcutaneous/intracranial glioma model can be established as follows. Six to eight week old athymic nu/nu mice will be anesthetized with intraperitoneal injections of ketamine (80 mg/kg) and xylazine (10 mg/kg). For the intracranial glioma model, the mice are placed into a stereotactic head frame (Harvard Apparatus), and local anesthetic (0.2 cc of 0.25% xylocaine) is injected into the right frontal scalp. A knife blade is used to make a small incision, and a drill bit is used to make a small opening in the right frontal skull at the level of the coronal suture. Glioma cells (1×10^5 cells/10 μl), for example, U-87 human glioma cells, will be loaded into a calibrated Hamilton syringe. The needle tip will be placed precisely into the right frontal lobe of the […], and cells will be slowly injected using a control push from the Hamilton syringe. After the injection is finished, the syringe and needle will be removed, and the wound closed. […]
Brains will be harvested, and tumor size determined. […]

Description for blood-brain-barrier: Brain Perfusion—Before euthanizing, the testing animals was perfused by 0.9% normal saline solution through left ventricle. The brain was removed and buried in OCT, and stored in −80° C. for further analysis.
Ultrasound Guided Intracardiac Puncture—Briefly, the animals were anesthetized using 2% isoflurane gas and fixed on the platform for intracardiac puncture. To penetrate the syringe needle into intercoastal space promptly through skin and muscle layers into the left ventricle under the guidance of ultrasound imaging. An indication of successful insertion of the needle into the left ventricle is the reflux of fresh arterial blood (pink color in contrast to dark red venous blood) into the syringe.
The extravasation of stained albumin from circulation could be visualized.
Different concentration of NE0100 (40 μ1 in 0.9% saline) was tested through intracardiac puncture, followed by immediate intravenous application of 2% Evans Blue (40 μ1 in volume). The brain was removed after perfusion.
Experimental groups include: • IC 2% EB only • IC 20% ethanol+2% EB • IC 20% ethanol+2% EB+5% NEO100 • IC 20% ethanol+5% NEO100, followed by 2% EB tail vein injection • IV 20% ethanol+2% EB+5% NEO100 • IV 20% ethanol+2% EB
The immune competent C57 BL/6 mice was injected with 5% NEO100 (v/v) through intracardiac puncture (IC), followed by intravenous injection of 2% Evans Blue at different time points, such as 0, 5 min, 15 min, 30 min, 1-hour, 2-hour, 3-hour, and 4 hours, post the IC injection.
Intracardiac Injection (IC): 5% NEO100. • 2. Followed by intravenous injection (IV) of 2% EB at different times. • 3. The testing animals were euthanized one hour after the IV injection.

SMILES	disturbance of the BBB (Evans Blue uptake into brain) (blood-brain-barrier; NEO100 1:1000 dilution (6.5 mM 40 μl) intracardiac, then 2% Evans Blue IV)	dopamine delivery to the brain (blood-brain-barrier; intracardiac NEO100)	opening of the BBB for antibodies (blood-brain-barrier; intracardiac injection (equivalent to intra-arterial injection for mice))	tight junction in the brain (blood-brain-barrier; intracardiac injection of 5% NEO100 compared to normal brain)	safety of intraarterial administration (blood-brain-barrier; mouse, in vivo)	patients achieving 6 month progression-free period ([1]; 140 treated patients) [%]	disease response [1]	side effects from the treatment [1]	disease remission ([1]; several patients) [years]	animal survival (Kaplan Meier) [2]	animal survival, combination (GL261 mouse glioma [3]; 40 μl 5% NEO100 intracardiac followed by anti-PD1 antibody 2.5 mg/kg IV)	animal survival, single agent (GL261 mouse glioma [3]; NEO100 alone (40 μl 5% intracardiac) or anti-PD1 alone (2.5 mg/kg IV))	severe adverse effect or animal death (GL261 mouse glioma [4]; 3% NEO100 intracardiac injection)	penetration of human CAR T cells (anti-CD19 and Lym-1) into the tumor formed inside the brain (GL261 mouse glioma [4]; 40 μl 3% NEO100 intracardiac, then 2 million CAR T cells IV, compared to IV only, 6 h)	CD3 positive cells in the normal parts of brain (GL261 mouse glioma [4]; intracardiac NEO100 plus IV CAR T cells vs IV injection only)	penetration of fluorescence labelled antibody across in vitro BBB model ([5]; Alexa Fluo 488 donkey anti-rat IgG, fluorescence in lower chamber at about 120 minutes)	TEER (transepithelial/transendothelial electrical resistance) ([5]; NEO100 2 mM)	survival after implantation (U-87 human glioma cells)
C=C(C)[C@@H]1CC=C(CO)CC1 [NEO100, perillyl alcohol]	still effective to disturb the BBB	mediated dopamine delivery through the breached blood-brain-barrier	could open the BBB for antibodies	breached dramatically	safe to administer intraarterially	50	regression or stabilization of the disease	almost non-existent	≤ 3	survived	still alive	all the controls were dead	does not cause any severe adverse effect or animal death	greatly increase the penetration into the tumor	More CD3 positive cells were found in the normal parts of brain	transiently allow labeled antibodies to transiently cross it; also recorded: enhanced penetration of fluorescence labelled antibody	decreased TEER	
Cn1nnc2c(C(N)=O)ncn2c1=O [TMZ, temozolomide]																		up to 8 weeks

From patent US12514828B2, “Methods of permeabilizing the blood brain barrier” (UNIVERSITY OF SOUTHERN CALIFORNIA, priority 2018, dated 2026)
